# Reference: patent US11203598B2, “Compounds for repressing cancer cell growth” (Institute For Cancer Research, priority 2018, dated 2021)
# Legend:
# Format in all cases: cell-based, human
# [1] = system: HCT116 cells; assay: Cell Titer-Glo cell viability assay; conditions: 72 hours, dose dependent
# Description: (§1) Cell lines at a concentration of 4×10^3 cells/well were seeded out on an opaque 96-well plate and treated with CB002 and Analog 11 in ranging doses starting from 200 μmol/L with DMSO controls. At 72 hours after treatment, cells were mixed with 30 μL Cell Titer-Glo reagent and after ten minutes of room temperature incubation were imaged using IVIS imaging system (Xenogen).
# [2] = system: HCT116 p53-null cells; assay: Cell Titer-Glo cell viability assay; conditions: 72 hours, dose dependent
# Description: as §1
# [3] = system: p53 targets in HCT116 p53-null cells; assay: Western blot of p53 targets
# Description: (§2) After treatment, cells were harvested by trypsinization, washed with PBS, and lysed with RIPA buffer (Sigma-Aldrich) for 30 minutes to 1 hour at 4° C. Protein lysates were spun down and supernatant was collected. Protein quantification was performed using a Pierce™ BCA Protein Assay Kit (Thermo Fisher Scientific). 1×NuPAGE® LDS sample buffer (Thermo Fisher Scientific) and 2-Mercaptoethanol as the reducing agent (Sigma-Aldrich) were added to protein lysates, followed by boiling for 15 minutes at 95° C. Equal total protein amounts samples were loaded into NuPAGE™ Novex™ 4-12% Bis-Tris Protein Gels (1.5 mm, Thermo Fisher Scientific) and gel eletrophoresis was performed with NuPAGE™ MES SDS Running Buffer. Proteins were transferred onto an Immobilon-P membrane (PVDF, EMD Millipore) using a Bio-Rad system with a 10% Tris-Glycine and 10% methanol transfer buffer diluted in distilled and deionized water. After transfer, membranes were blocked with 10% milk in TBST solution and then incubated overnight with primary antibody, washed with TBST and incubated with secondary antibody for 1 hour. Incubations were performed in 5% milk in TBST solution. Signal was detected by using a chemiluminescent detection kit, followed by autoradiography. The following antibodies were used: p53 (DO-1, 1:1000, Santa Cruz), p73 (1:1000, Bethyl Laboratories), p21 and NOXA (1:250, EMD Millipore), DR5, FADD, cleaved caspase 3, cleaved caspase 8, cleaved PARP, and LC3B (1:1000, Cell Signaling), and β-actin (1:10000, Sigma).
# (§3) Proteins were isolated using NP40 Lysis Buffer (20 mmol/L Tris-HCl (pH 7.4), 150 mmol/L NaCl, 5 mmol/L EDTA, 50 mmol/L NaF, 1 mmol/L glycerophosphate, 5 mmol/L Na4P2O7, 0.5% NP40, and complete protease inhibitor cocktail (Roche)) and electrophoresed through 4-12% SDS-PAGE followed by semi-dry transfer to PVDF membranes. The PVDF membranes were incubated with different antibodies including p21 (OP64-100UG, EMD Millipore (world wide web at emdmillipore.com/US/en/product/Antip21WAF1-(Ab-1)-Mouse-mAb-(EA10), EMD_BIO-OP64)), PUMA (12450S, Cell Signaling Technology, world wide web at cellsignal.com/products/primary-antibodies/puma-d30c10-rabbit-mab/12450), DR5 (3696S, Cell Signaling Technology, world wide web at cellsignal.com/products/primary-antibodies/dr5-antibody/3696?N=4294956287&Ntt=3696s&fromPage=plp& requestid=541668), p53(sc-126, Santa Cruz, world wide web at scbt.com/scbt/fr/product/p53-antibody-do-1), and RAN (610341, BD Transduction Laboratories, world wide web at bdbiosciences.com/us/reagents/research/antibodies-buffers/cell-biologyreagents/cell-biology-antibodies/purified-mouse-anti-ran-20ran/p/610341) in blocking buffer at 4° C. overnight. Bound antibody will be detected using IRDye secondary antibodies (LI-COR Biosciences,) in Odyssey blocking buffer for 1 hour then imaged using the ODYSSEY infrared imaging system.
# [4] = system: p53 pathway proteins in SW480 cells; assay: Western blot of p53, p53 targets, apoptosis and autophagy markers; conditions: for Noxa expression: 24 hour, 100 μM CB002, 25 NM Analog 4, 100 μM Analog 11; for mutant p53 protein level: varying doses, anti-p53 (DO-1)
# Description: as §2, §3
# [5] = system: SW480 cells; assay: CellTiter-Glo luminescent cell viability assay; conditions: 24 hours
# [6] = system: HCT116 cells; assay: FACS sub-G1 analysis; conditions: 72 hours, dose dependent, over untreated controls
# Description: (§4) Cells were seeded out at 1×10^6 cells/well on six well plates and treated with CB002 and Analog 11 at ranging doses with DMSO controls. Cells were harvested after 72 hours of treatment, all cells including floating cells were fixed with ethanol and stained with Propidium Iodide and then analyzed using Epics Elite flow cytometer to measure the DNA content of the stained cells.
# [7] = system: HCT116 p53-null cells; assay: FACS sub-G1 analysis; conditions: 72 hours, dose dependent, over untreated controls
# Description: as §4
# [8] = system: SW480 cells; assay: apoptosis assay, sub-G1 analysis (propidium iodide, flow cytometry); conditions: for sub-G1 fraction: dose dependent, over untreated controls
# Description: Apoptotic cells were quantified by sub-G1 analysis. Cells were seeded at a density of 2.5×10^5 to 5×10^5 in a 6-well plate and treated for 48-72 hours. After treatment, adherent cells were trypsinized and collected along with floating cells, washed with PBS and fixed in 70% ethanol. Cells were then incubated in a Phosphate-citric acid buffer (0.2 M Na2HPO4+0.1 M Citric Acid, pH 7.8) at room temperature for 5 minutes, spun down and resuspended for staining with 50 μg/mL propidium iodide (PI) in the presence of 250 μg/mL pancreatic ribonuclease (RNase A). Sub-G1 analyses were performed using an Epics Elite Epics flow cytometer (Coulter-Beckman).
# as §4
# [9] = system: wild-type p53 and p53 targets in HCT116 cells; assay: Western blot of p53 and p53 targets; conditions: for wild-type p53 protein level: 24 hours, increasing dose
# Description: as §2, §3
# [10] = system: SW480 cells; assay: CellTiter-Glo luminescent cell viability assay; conditions: for cell viability: dose dependent
# Description: Cells were seeded in 96-well plates at a density of 5×10^3 cells per well. 20 μL of CellTiter-Glo® Reagent was added directly to the wells, following the manufacturer's protocol, and bioluminescence signal was determined using an IVIS imaging system.
# as §1
# To begin establishing the potential of CB002 as a candidate therapeutic agent, its therapeutic index was determined by treating cancer (DLD-1, SW480, and RXF393) and normal (WI38 and MRC5) cell lines with concentrations of CB002 ranging from 0-500 μM for a period of 72 hours and assessing cell viability by the CellTiter-Glo® luminescence assay (see, FIG. 2). CB002 has a significant therapeutic index among the cells tested.
compound,measurement,setting,value
"Cn1c(=O)c2c(nc(Nc3ccccc3)n2C)n(C)c1=O [Analog 11, 8-anilino-1,3,7-trimethyl-3,7-dihydro-1Hpurine-2,6-dione]",cell viability,[1],reduced cell viability
same,cell viability,[2],reduced cell viability
same,p21 protein level,[3]; 8 hours,increase moderately
same,PUMA protein level,"[3]; 8 hours, 25 μmol/L and 50 μmol/L",appeared to increase
same,PUMA protein level,[3]; 24 hours,slight decrease
same,p21 protein level,[3]; 24 hours,no consistent difference
same,Noxa expression,[4],Induction of Noxa expression
same,mutant p53 protein level,[4]; 24 hours,decrease moderately
same,combination index with Irinotecan,"[5]; 0-100 μM Irinotecan with 0-200 μM Analog 11, CompuSyn",synergizes with Irinotecan
same,sub-G1 fraction,[6],increased cells in sub-G1 fraction
same,sub-G1 fraction,[7],increased cells in sub-G1 fraction
same,sub-G1 fraction,[8]; 72 hours,increased cells in sub-G1 fraction
same,PUMA expression,[9]; 8 and 24 hours,increase only at 24 hours
same,p21 protein level,[9]; 8 and 24 hours,increase moderately in a dose dependent fashion
same,wild-type p53 protein level,[9],moderate increase in wild-type p53
same,cell viability,[10]; 72 hours,reduced cell viability
"Cn1c(=O)c2[nH]c(Nc3ccccc3)nc2n(C)c1=O [CB002, 8-anilino-1,3-dimethyl-3,7-dihydro-1H-purine-2,6-dione]",cell viability,[1],reduced cell viability
same,cell viability,[2],reduced cell viability
same,p21 protein level,[3]; 8 hours,increase moderately
same,p21 protein level,[3]; 24 hours,no consistent difference
same,Noxa protein expression,[4]; 50 μM and 96 μM,increased
same,expression of p21 and DR5,"[4]; 12, 25, and 50 μM, 16 hours",increase the expression
same,p53 protein expression level (mutant p53),"[4]; 12, 25, and 50 μM, 16 hours, versus DMSO",constant p53 protein expression levels
same,cleaved PARP expression,"[4]; 12, 25, and 50 μM, versus vehicle",observed to increase
same,LC3B expression (autophagy marker),[4]; 50 and 96 μM,induce the expression of LC3B
same,Noxa expression,[4],Induction of Noxa expression
same,mutant p53 protein level,[4]; 24 hours,decrease significantly
same,cleaved caspase 3 and cleaved PARP expression,"[4]; DR5 siRNA knockdown, 50 and 96 μM",continued to induce the expression
same,cleaved PARP expression,"[4]; FADD knockdown cells, 24 hours",able to induce the expression of cleaved PARP
same,LC3B expression,"[4]; NOXA knock-down cells, 50 and 96 μM",failed to induce LC3B expression
same,c-caspase 3 and cleaved PARP expression,"[4]; NOXA shRNA knockdown, 50 and 96 μM",did not induce the expression of apoptotic markers
same,PARP cleavage,"[4]; atg5 siRNA knockdown, 16 and 24 hours",complete loss of PARP cleavage
same,cleaved caspase 8 and cleaved PARP,"[4]; combination with 50 μM chloroquine, 24 hours",reduced compared to CB002 alone
same,"expression of p21, DR5 and PARP cleavage",[4]; p73 siRNA knockdown cells,"increase the expression of p53 target genes p21 and DR5, and associated PARP cleavage"
same,combination index with Ganetespib,"[5]; 0-20 μM Ganetespib with 0-200 μM CB002, CompuSyn",synergizes with Ganetespib
same,sub-G1 fraction,[6],increased cells in sub-G1 fraction
same,sub-G1 fraction,[7],increased cells in sub-G1 fraction
same,sub-G1 content,"[8]; 96 μM, 48 hours, parental SW480 (NOXA experiment), DMSO 4.5%",19%
same,sub-G1 population,"[8]; 96 μM, 48 hours, DMSO control 8.7%",32.6%
same,increase of cells in sub-G1,"[8]; 200 μM, 72 hours",20%
same,sub-G1 fraction,[8]; 72 hours,increased cells in sub-G1 fraction
same,p21 protein level,[9]; 8 and 24 hours,increase moderately in a dose dependent fashion
same,wild-type p53 expression,[9]; 50 and 100 μM,unable to decrease the expression of wild-type p53
same,wild-type p53 protein level,[9],moderate increase in wild-type p53
same,"combination index (CI), CB002 and CPT-11",[10]; 72 hours,synergism
same,cell viability,[10]; 72 hours,reduced cell viability
same,"combination index (CI), CB002 and 5-FU","[10]; 72 hours, CI<1 indicates synergism",< 1.0
same,"cell viability, combination with 5-FU","[10]; CB002 (22 μM and 66 μM) with 5-FU (60 μg/ml), 72 hours, versus single agents",significantly reduced cell viability
same,"cell viability, combination with CPT-11","[10]; CB002 (66 μM) and CPT-11 (a series of doses), 72 hours, versus single agents",significantly reduced cell viability
same,IC50,"[10]; Homo sapiens, SW480, 72 hours, GraphPad",96.5 µM
